This is an account of results in US20250312499A1, “KISSPEPTIN RECEPTOR (KISS1R) TARGETED THERAPEUTICS AND USES THEREOF” (priority 2024, published 2025).

The assay concerns the target human kisspeptin receptor (Homo sapiens (Human), UniProt Q969F8). The experiment in a line: Human KISS1R binding assay (membrane competition binding). To be noted: 90 min at room temperature; competition with 0.2 nM [125I]-metastin (45-54); Flp-In T-Rex 293 kisspeptin membranes; metal complexes nonradioactive Ga, In, Lu; read-out: hKiSSR Binding Ki (90 min). In a few lines:
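Membranes from tetracycline-induced (48 h) Flp-In T-Rex 293 cells expressing receptor, 5–10 μg, incubated 90 min at room temperature with 0.2 nM [125I]-metastin (45-54) and competitor (typically 0–10,000 nM) in Tris/Mg/Ca/EGTA/0.1% BSA, pH 7.4. Filtration, washing, counting; Ki by non-linear regression.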

Each structure is given as a SMILES string. Numbered stars: 1 amine (or outer) side, 2 acyl side, 3 side chain; on linkers, the order of the positions; unused ones are H or OH. Square brackets hold non-standard residues; d marks the D form. Peptide text beside a SMILES is read from it. * marks the point of attachment. DOTA = O=C(O)CN1CCN(CC(=O)O)CCN(CC(=O)*)CCN(CC(=O)O)CC1; Gly(N-(3-F-4-Me-benzyl)) = Cc1ccc(CNCC(=O)*)cc1F; Propanoyl(3-(MeO(CH2CH2O)2)) = COCCOCCOCCC(=O)*; Gly(Nα-4-MeO-benzyl) = COc1ccc(CNCC(=O)*)cc1; Api(1-amidino) = N=C(N)N1CCC(N)(C(=O)O)CC1; Hydrocinnamoyl(4-Me) = Cc1ccc(CCC(=O)*)cc1; d(γGlu) = O=C(O)[C@@H](CCC(=O)[*:2])N[*:1]; Hydrocinnamoyl(4-I) = O=C(CCc1ccc(I)cc1)*; Phe(3-F) = N[C@@H](Cc1cccc(F)c1)C(=O)O; d2Nal = N[C@H](Cc1ccc2ccccc2c1)C(=O)O; Palmitoyl = CCCCCCCCCCCCCCCC(=O)*; Trx = NC[C@H]1CC[C@H](C(=O)O)CC1; X1 = O=C(CN1CCC(N[*:1])CC1)[*:2]; 4Pal = N[C@@H](Cc1ccncc1)C(=O)O; Cha = N[C@@H](CC1CCCCC1)C(=O)O; Api = NC1(C(=O)O)CCNCC1; X13 = O=C(CNCC1CCSCC1)*; PEG2 = NCCOCCOCCC(=O)O; Ahx = NCCCCCC(=O)O; azaGly = NNC(=O)O; βAla = NCCC(=O)O; Sar = CNCC(=O)O

Sequence of human kisspeptin receptor (Q969F8 whole entry): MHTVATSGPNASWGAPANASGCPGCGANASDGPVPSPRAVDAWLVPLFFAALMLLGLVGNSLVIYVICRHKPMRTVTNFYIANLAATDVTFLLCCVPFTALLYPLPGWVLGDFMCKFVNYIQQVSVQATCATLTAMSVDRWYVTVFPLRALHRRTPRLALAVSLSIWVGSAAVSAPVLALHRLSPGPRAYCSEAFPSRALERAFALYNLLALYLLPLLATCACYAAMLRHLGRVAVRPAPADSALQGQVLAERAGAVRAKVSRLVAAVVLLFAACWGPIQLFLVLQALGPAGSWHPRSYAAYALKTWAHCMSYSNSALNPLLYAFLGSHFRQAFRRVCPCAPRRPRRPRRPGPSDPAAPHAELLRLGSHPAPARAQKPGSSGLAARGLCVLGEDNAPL

As for `Cc1ccc(CCC(=O)NCCOCCOCCC(=O)N[C@H](Cc2ccc(O)cc2)C(=O)N[C@@H](CCCCNC(=O)CN2CCN(CC(=O)O)CCN(CC(=O)O)CCN(CC(=O)O)CC2)C(=O)N[C@@H](CC(N)=O)C(=O)N[C@H](C(=O)N[C@@H](Cc2ccccc2)C(=O)NNC(=O)N[C@@H](CC(C)C)C(=O)NC2(C(=O)N[C@@H](Cc3ccccc3)C(N)=O)CCN(C(=N)N)CC2)[C@@H](C)O)cc1` [Compound 322] ({Hydrocinnamoyl(4-Me)-PEG2}-[dY]K(DOTA)NTF[azaGly]L[Api(1-amidino)]F-NH2), the Ki is < 10 nM.
For the compound `Cc1ccc(CNCC(=O)N2CCC(NC(=O)[C@H](CC(C)C)NC(=O)NNC(=O)[C@H](Cc3ccccc3)NC(=O)CC[C@@H](NC(=O)CN3CCN(CC(=O)O)CCN(CC(=O)O)CCN(CC(=O)O)CC3)C(=O)O)(C(=O)N[C@@H](Cc3c[nH]c4ccccc34)C(N)=O)CC2)cc1F` [Compound 156] ({DOTA-d(γGlu)}-F[azaGly]L[Api](Gly(N-(3-F-4-Me-benzyl)))W-NH2), the inhibitory constant (Ki) was < 10 nM.
Take `CC(C)C[C@H](NC(=O)NNC(=O)[C@H](Cc1ccccc1)NC(=O)[C@@H](NC(=O)[C@H](CC(N)=O)NC(=O)[C@@H](CCCCNC(=O)CN1CCN(CC(=O)O)CCN(CC(=O)O)CCN(CC(=O)O)CC1)NC(=O)[C@@H](Cc1ccc(O)cc1)NC(=O)CCOCCOCCNC(=O)CCc1ccc(I)cc1)[C@@H](C)O)C(=O)NC1(C(=O)N[C@@H](Cc2c[nH]c3ccccc23)C(N)=O)CCN(C(=N)N)CC1` [Compound 334] ({Hydrocinnamoyl(4-I)-PEG2}-[dY][dK](DOTA)NTF[azaGly]L[Api(1-amidino)]W-NH2): the Ki is < 10 nM.
As for `Cc1ccc(CNCC(=O)N2CCC(NC(=O)[C@H](CC(C)C)NC(=O)NNC(=O)[C@H](Cc3ccccc3)NC(=O)[C@@H](NC(=O)[C@H](CC(N)=O)NC(=O)CN3CCC(NC(=O)CN4CCN(CC(=O)O)CCN(CC(=O)O)CCN(CC(=O)O)CC4)CC3)[C@@H](C)O)(C(=O)N[C@@H](Cc3c[nH]c4ccccc34)C(N)=O)CC2)cc1F` [Compound 158] ({DOTA}-[X1]NTF[azaGly]L[Api](Gly(N-(3-F-4-Me-benzyl)))W-NH2), the Ki is < 10 nM.
For the compound `CC(C)C[C@H](NC(=O)NNC(=O)[C@H](Cc1ccccc1)NC(=O)[C@@H](NC(=O)[C@H](CC(N)=O)NC(=O)[C@@H](Cc1ccc2ccccc2c1)NC(=O)[C@@H](Cc1ccc(O)cc1)NC(=O)CCCCCNC(=O)CN1CCN(CC(=O)O)CCN(CC(=O)O)CCN(CC(=O)O)CC1)[C@@H](C)O)C(=O)NC1(C(=O)N[C@H](Cc2c[nH]c3ccccc23)C(N)=O)CCN(C(=O)CNCC2CCSCC2)CC1` [Compound 375] ({DOTA-Ahx}-[dY][d2Nal]NTF[azaGly]L[Api](X13)[dW]-NH2), the inhibition constant Ki was > 100 nM.
On to `CC(C)C[C@H](NC(=O)NNC(=O)[C@H](Cc1ccccc1)NC(=O)[C@@H](NC(=O)[C@H](CC(N)=O)NC(=O)[C@@H](Cc1ccc2ccccc2c1)NC(=O)[C@@H](Cc1ccc(O)cc1)NC(=O)CCOCCOCCNC(=O)CCc1ccc(I)cc1)[C@@H](C)O)C(=O)NC1(C(=O)N[C@@H](Cc2ccccc2)C(N)=O)CCN(C(=N)N)CC1` [Compound 396] ({Hydrocinnamoyl(4-I)-PEG2}-[dY][d2Nal]NTF[azaGly]L[Api(1-amidino)]F-NH2), for which the Ki is < 10 nM.
Take `Cc1ccc(CNCC(=O)N2CCC(NC(=O)[C@H](CC(C)C)NC(=O)CNC(=O)[C@H](Cc3ccccc3)NC(=O)CCCCCNC(=O)CN3CCN(CC(=O)O)CCN(CC(=O)O)CCN(CC(=O)O)CC3)(C(=O)N[C@@H](Cc3ccc(O)cc3)C(N)=O)CC2)cc1F` [Compound 11] ({DOTA-Ahx}-FGL[Api](Gly(N-(3-F-4-Me-benzyl)))Y-NH2): the inhibition constant (Ki) was < 10 nM.
Take `Cc1ccc(CNCC(=O)N2CCC(NC(=O)[C@H](CC(C)C)NC(=O)NNC(=O)[C@H](Cc3ccccc3)NC(=O)[C@@H](NC(=O)[C@H](CC(N)=O)NC(=O)CCCCCNC(=O)CN3CCN(CC(=O)O)CCN(CC(=O)O)CCN(CC(=O)O)CC3)[C@@H](C)O)(C(=O)N[C@@H](Cc3c[nH]c4ccccc34)C(N)=O)CC2)cc1F` [Compound 26] ({DOTA-Ahx}-NTF[azaGly]L[Api](Gly(N-(3-F-4-Me-benzyl)))W-NH2): the Ki is < 10 nM.
Take `Cc1ccc(CNCC(=O)N2CCC(NC(=O)[C@H](CC(C)C)NC(=O)NNC(=O)[C@H](Cc3ccccc3)NC(=O)[C@@H](CC(N)=O)NC(=O)[C@@H](CCC(=O)O)NC(=O)[C@@H](CCCCN)NC(=O)[C@@H](CC(N)=O)NC(=O)[C@@H](CC(N)=O)NC(=O)CCNC(=O)CN3CCN(CC(=O)O)CCN(CC(=O)O)CCN(CC(=O)O)CC3)(C(=O)N[C@@H](Cc3c[nH]c4ccccc34)C(N)=O)CC2)cc1F` [Compound 16] ({DOTA-βAla}-[dN][dN][dK][dE][dN]F[azaGly]L[Api](Gly(N-(3-F-4-Me-benzyl)))W-NH2): the Ki was > 100 nM.
For the compound `Cc1ccc(CNCC(=O)N2CCC(NC(=O)[C@H](CC(C)C)NC(=O)NNC(=O)[C@H](Cc3cccc(F)c3)NC(=O)[C@@H](NC(=O)[C@H](CC(N)=O)NC(=O)[C@@H](CCC(=O)O)NC(=O)[C@H]3CC[C@H](CNC(=O)CN4CCN(CC(=O)O)CCN(CC(=O)O)CCN(CC(=O)O)CC4)CC3)[C@@H](C)O)(C(=O)N[C@@H](Cc3c[nH]c4ccccc34)C(N)=O)CC2)cc1F` [Compound 161] ({DOTA-Trx}-[dE]NT[Phe(3-F)][azaGly]L[Api](Gly(N-(3-F-4-Me-benzyl)))W-NH2), the Ki is < 10 nM.
The same measure for `CNCC(=O)N1CCC(NC(=O)[C@H](CC(C)C)NC(=O)NNC(=O)[C@H](CC2CCCCC2)NC(=O)[C@@H](NC(=O)[C@H](CC(N)=O)NC(=O)[C@H](CCCCNC(=O)CN2CCN(CC(=O)O)CCN(CC(=O)O)CCN(CC(=O)O)CC2)NC(=O)[C@@H](Cc2ccc(O)cc2)NC(=O)CCOCCOCCNC(=O)CCc2ccc(C)cc2)[C@@H](C)O)(C(=O)N[C@H](Cc2c[nH]c3ccccc23)C(N)=O)CC1` [Compound 356] ({Hydrocinnamoyl(4-Me)-PEG2}-[dY]K(DOTA)NT[Cha][azaGly]L[Api](Sar)[dW]-NH2): < 10 nM; for `COc1ccc(CNCC(=O)N2CCC(NC(=O)[C@H](CC(C)C)NC(=O)NNC(=O)[C@H](Cc3ccccc3)NC(=O)[C@@H](NC(=O)[C@H](CC(N)=O)NC(=O)[C@H](CCC(=O)O)NC(=O)CCCCCNC(=O)CN3CCN(CC(=O)O)CCN(CC(=O)O)CCN(CC(=O)O)CC3)[C@@H](C)O)(C(=O)N[C@@H](Cc3ccccc3)C(N)=O)CC2)cc1` [Compound 236] ({DOTA-Ahx}-ENTF[azaGly]L[Api](Gly(Nα-4-MeO-benzyl))F-NH2): < 10 nM.
In the case of `COCCOCCOCCC(=O)N[C@@H](CCCCNC(=O)CN1CCN(CC(=O)O)CCN(CC(=O)O)CCN(CC(=O)O)CC1)C(=O)N[C@@H](CC(N)=O)C(=O)N[C@H](C(=O)N[C@@H](Cc1ccccc1)C(=O)NNC(=O)N[C@@H](CC(C)C)C(=O)NC1(C(=O)N[C@@H](Cc2ccncc2)C(N)=O)CCN(C(=O)CNCc2ccc(C)c(F)c2)CC1)[C@@H](C)O` [Compound 255] ({Propanoyl(3-(MeO(CH2CH2O)2))}-K(DOTA)NTF[azaGly]L[Api](Gly(N-(3-F-4-Me-benzyl)))[4Pal]-NH2), the Ki is < 10 nM.
As for `CCCCCCCCCCCCCCCC(=O)N[C@H](Cc1ccc(O)cc1)C(=O)N[C@@H](CCCCNC(=O)CN1CCN(CC(=O)O)CCN(CC(=O)O)CCN(CC(=O)O)CC1)C(=O)N[C@@H](CC(N)=O)C(=O)N[C@H](C(=O)N[C@@H](Cc1ccccc1)C(=O)NNC(=O)N[C@@H](CC(C)C)C(=O)NC1(C(=O)N[C@@H](Cc2c[nH]c3ccccc23)C(N)=O)CCN(C(=N)N)CC1)[C@@H](C)O` [Compound 328] (Palmitoyl-[dY]K(DOTA)NTF[azaGly]L[Api(1-amidino)]W-NH2), the Ki is < 10 nM.
